In paper PMC2365111, “Cytotoxicity of Poly(Phenolic)Sulfonates and Their Sodium Salts in L1210 Lymphoid Leukemia Cells” (Metal-Based Drugs, 1998):

Experiments:
Ribonucleoside reductase = molecular target: T1, Ribonucleoside reductase (Mus musculus, UniProt P07742); test: Ribonucleoside reductase activity, L1210; type: biochemical; conditions: 60 min, N=6
T1 construct: preparing the appropriate L1210 cell homogenates or subcellular fractions; endogenous in cells; host or cells: L1210 murine lymphoid leukemia cells, homogenate or subcellular fraction
T1 sequence (P07742 1-792): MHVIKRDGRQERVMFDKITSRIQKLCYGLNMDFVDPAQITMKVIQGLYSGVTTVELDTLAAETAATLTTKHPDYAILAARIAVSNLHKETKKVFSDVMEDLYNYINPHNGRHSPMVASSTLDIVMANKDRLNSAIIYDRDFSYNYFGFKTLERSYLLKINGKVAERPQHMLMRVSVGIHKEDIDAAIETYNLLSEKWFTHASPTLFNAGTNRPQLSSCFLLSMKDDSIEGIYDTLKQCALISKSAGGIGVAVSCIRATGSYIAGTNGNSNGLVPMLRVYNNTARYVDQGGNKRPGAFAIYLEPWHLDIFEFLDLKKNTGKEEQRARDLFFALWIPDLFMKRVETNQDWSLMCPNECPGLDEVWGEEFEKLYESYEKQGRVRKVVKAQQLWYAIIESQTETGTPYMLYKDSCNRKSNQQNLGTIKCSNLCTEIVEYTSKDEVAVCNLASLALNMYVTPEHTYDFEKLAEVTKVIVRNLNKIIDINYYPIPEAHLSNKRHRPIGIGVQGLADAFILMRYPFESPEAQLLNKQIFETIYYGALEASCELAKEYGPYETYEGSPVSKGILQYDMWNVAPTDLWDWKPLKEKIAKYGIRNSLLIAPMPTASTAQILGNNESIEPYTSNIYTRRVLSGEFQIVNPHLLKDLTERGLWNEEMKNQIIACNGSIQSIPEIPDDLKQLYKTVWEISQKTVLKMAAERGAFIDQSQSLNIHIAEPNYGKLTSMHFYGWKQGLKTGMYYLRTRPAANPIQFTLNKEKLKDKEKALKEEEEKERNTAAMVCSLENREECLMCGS
T1 sequence (P11157 1-390 partner): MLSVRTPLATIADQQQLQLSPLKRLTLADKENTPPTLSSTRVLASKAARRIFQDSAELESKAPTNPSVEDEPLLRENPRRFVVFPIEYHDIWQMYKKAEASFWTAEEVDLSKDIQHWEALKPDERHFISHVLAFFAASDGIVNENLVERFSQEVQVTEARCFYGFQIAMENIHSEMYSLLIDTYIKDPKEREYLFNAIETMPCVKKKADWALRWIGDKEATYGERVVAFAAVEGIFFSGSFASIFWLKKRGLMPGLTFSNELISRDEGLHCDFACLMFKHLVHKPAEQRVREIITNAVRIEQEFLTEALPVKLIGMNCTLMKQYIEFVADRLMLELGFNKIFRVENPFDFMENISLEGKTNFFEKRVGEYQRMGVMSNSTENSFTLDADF
Source text: (§1) CYTOTOXlCITY OF POLY(PHENOLIC)SULFONATES AND THEIR SODIUM SALTS IN L1210 LYMPHOID LEUKEMIA CELLS Fei Wang, Amy E. Warren, Cheryl R. Barnes and Iris H. Hall* Division of Medicinal Chemistry and Natural Products University of North Carolina Chapel Hill, N.C. […] Because ofthese properties it was surmised that these poly(phenolic)sulfonated compounds may have antineoplastic activity. METHODS Source of Compounds Test compounds were supplied by GeneLabs, Inc. [Redwood City, CA [Table 1]. Radioisotopes were obtained from New England Nuclear [Dupont, Boston, MA]. Substrates and co-factors were purchased om Sigma Chemical Co., [St Louis, MO]. Pentosan sulfate and other antineoplastic standards were obtained from Sigma Chemical Co. Tumor lines were obtained from American Type Culture Collection [Rockville, MD]. 147 Vol. 5, No. 3, 1998 Cytotoxicity ofSodium Poly(Phenolic)Sulfonates in L1210 Lymphoid Leukemia Cells Table 1 Structures of Poly(phenolic)sulfonate Compounds O2R" n Compound R' R" n MW # G1-2041 H OH 8 1489.46 G1-2029 H OH 6 1117.09 G1-2030 H OH 4 744.73 GI-2021 CH3 ONa 8 1777.5 G1-2057 CH3 ONa 4 888.75 GI-2158 CH3 ONa 6 1333.13 GI-2063 OCH3 ONa 8 2001.65 G1-2042 OAc ONa 8 2017.73 Cytotoxicity Poly(phenolic)sulfonates were tested for cytotoxic activity by homogenizing drug in 0.05% Tween 80/H20 to give a mg/ml stock concentration. These solutions were sterilized by passing them through an acrodisc ([…]). The following cell lines were maintained by literature techniques: murine L1210 lymphoid leukemia, P-388 lymphocytic leukemia, rat UMR 106 osteosarcoma, human Tmolt3 acute lymphoblastic T cell leukemia, HUT-8 lymphoma, HeLa-S suspended cervical carcinoma, HeLa solid cervical carcinoma, KB epidermoid nasopharynx, A431 epidermoid carcinoma, colorectal adenocarcinoma SW480, HCT-8 ileocecal adenocarcinoma, lung bronchogenic MB-9812, A549 lung carcinoma, and glioma HS683. Geran et al.'s protocol was used to assess the cytotoxicity of the compounds and standards in each cell line. Cell numbers were determined by the trypan blue exclusion technique. Solid tumor cytotoxicity was determined by Leibovitz et al. 's method utilizing crystal violeeOH and read at 562 nm (Molecular Devices). Values for cytotoxicity were expressed as EDs0 g/ml, i.e. the concentration ofthe compound inhibiting 50% ofcell growth. A value of less than 4 µg/ml was required for significant activity ofgrowth inhibition. Incorporation Studies Incorporation of labeled precursors into 3H-DNA, 3H -RNA and 3H -protein for 10 L1210 cells was obtained. The concentration response for inhibition of DNA, RNA and protein synthesis of the compounds at 25, 50 and 100 l.tM was determined for 60 min incubations. Incorporation of 14C -glycine (53.0 mCi/mmol) into purines was obtained by the method of Cadman et al.[12]. Incorporation of 4C- formate (53.0 mCi/mmol) into pyrimidines was determined by the method of Christopherson et al.[13]. Enzyme Assays Inhibition of various enzyme activities was performed by first preparing the appropriate L1210 cell homogenates or subcellular fractions, then adding the drug to be tested during the enzyme assay. For the concentration response studies, inhibition of enzyme activity was determined at 25, 50 and 100 l.tM of compounds G1-2021, G1-2029, GI-2041 and G1-2063 after 60 min incubations. DNA polymerase Ot activity was determined in cytoplasmic extracts isolated by Eichler et aL's method. The DNA polymerase assay was described by Sedwick et al.[15] using 3H-TTP. Messenger-, ribosomal- and transfer-RNA polymerase enzymes were isolated with different concentrations of ammonium sulfate; individual RNA polymerase activities were determined using 3H -UTP 16,17]. Ribonucleoside reductase activity was measured using 4C -CDP with dithioerythritol. The deoxyribonucleotides 4C -dCDP were separated from the ribonucleotides by TLC on PEI plates. […]

tRNA polymerase = test: Transfer-RNA polymerase activity, L1210; type: biochemical, mouse; conditions: 60 min, N=6
Source text: as §1

## COc1c2cc(S(=O)(=O)[O-])cc1Cc1cc(S(=O)(=O)[O-])cc(c1OC)Cc1cc(S(=O)(=O)[O-])cc(c1OC)Cc1cc(S(=O)(=O)[O-])cc(c1OC)Cc1cc(S(=O)(=O)[O-])cc(c1OC)Cc1cc(S(=O)(=O)[O-])cc(c1OC)Cc1cc(S(=O)(=O)[O-])cc(c1OC)Cc1cc(S(=O)(=O)[O-])cc(c1OC)C2.[Na+].[Na+].[Na+].[Na+].[Na+].[Na+].[Na+].[Na+] [GI-2021]
Ribonucleoside reductase; 25 μM
  Ribonucleoside reductase: 158+6% of Control
Ribonucleoside reductase; 50 μM
  Ribonucleoside reductase: 124+5% of Control
Ribonucleoside reductase; 100 μM
  Ribonucleoside reductase: 91+5% of Control
tRNA polymerase; 25 μM
  tRNA polymerase: 98+5% of Control
tRNA polymerase; 50 μM
  tRNA polymerase: 85+5% of Control
tRNA polymerase; 100 μM
  tRNA polymerase: 76+4% of Control

## O=S(=O)(O)c1cc2c(O)c(c1)Cc1cc(S(=O)(=O)O)cc(c1O)Cc1cc(S(=O)(=O)O)cc(c1O)Cc1cc(S(=O)(=O)O)cc(c1O)Cc1cc(S(=O)(=O)O)cc(c1O)Cc1cc(S(=O)(=O)O)cc(c1O)C2 [GI-2029]
Ribonucleoside reductase; 25 μM
  Ribonucleoside reductase: 130+5% of Control
Ribonucleoside reductase; 50 μM
  Ribonucleoside reductase: 130+6% of Control
Ribonucleoside reductase; 100 μM
  Ribonucleoside reductase: 141+5% of Control
tRNA polymerase; 25 μM
  tRNA polymerase: 103+5% of Control
tRNA polymerase; 50 μM
  tRNA polymerase: 98+5% of Control

## O=S(=O)(O)c1cc2c(O)c(c1)Cc1cc(S(=O)(=O)O)cc(c1O)Cc1cc(S(=O)(=O)O)cc(c1O)Cc1cc(S(=O)(=O)O)cc(c1O)Cc1cc(S(=O)(=O)O)cc(c1O)Cc1cc(S(=O)(=O)O)cc(c1O)Cc1cc(S(=O)(=O)O)cc(c1O)Cc1cc(S(=O)(=O)O)cc(c1O)C2 [GI-2041]
Ribonucleoside reductase; 25 μM
  Ribonucleoside reductase: 127+5% of Control
Ribonucleoside reductase; 50 μM
  Ribonucleoside reductase: 127+6% of Control
tRNA polymerase; 25 μM
  tRNA polymerase: 108+6% of Control
